Test results taken from PMC3515674 (Angewandte Chemie (International ed. in English), 2011).
Read-outs that look alike come from different tables or passages of the source. Ends that are not written are not given here. MCA = 7-methoxycoumarin-4-acetic acid

Biological target: T1, purified human α2M (Homo sapiens, UniProt P01023)
T1 sequence (P01023 24-1474): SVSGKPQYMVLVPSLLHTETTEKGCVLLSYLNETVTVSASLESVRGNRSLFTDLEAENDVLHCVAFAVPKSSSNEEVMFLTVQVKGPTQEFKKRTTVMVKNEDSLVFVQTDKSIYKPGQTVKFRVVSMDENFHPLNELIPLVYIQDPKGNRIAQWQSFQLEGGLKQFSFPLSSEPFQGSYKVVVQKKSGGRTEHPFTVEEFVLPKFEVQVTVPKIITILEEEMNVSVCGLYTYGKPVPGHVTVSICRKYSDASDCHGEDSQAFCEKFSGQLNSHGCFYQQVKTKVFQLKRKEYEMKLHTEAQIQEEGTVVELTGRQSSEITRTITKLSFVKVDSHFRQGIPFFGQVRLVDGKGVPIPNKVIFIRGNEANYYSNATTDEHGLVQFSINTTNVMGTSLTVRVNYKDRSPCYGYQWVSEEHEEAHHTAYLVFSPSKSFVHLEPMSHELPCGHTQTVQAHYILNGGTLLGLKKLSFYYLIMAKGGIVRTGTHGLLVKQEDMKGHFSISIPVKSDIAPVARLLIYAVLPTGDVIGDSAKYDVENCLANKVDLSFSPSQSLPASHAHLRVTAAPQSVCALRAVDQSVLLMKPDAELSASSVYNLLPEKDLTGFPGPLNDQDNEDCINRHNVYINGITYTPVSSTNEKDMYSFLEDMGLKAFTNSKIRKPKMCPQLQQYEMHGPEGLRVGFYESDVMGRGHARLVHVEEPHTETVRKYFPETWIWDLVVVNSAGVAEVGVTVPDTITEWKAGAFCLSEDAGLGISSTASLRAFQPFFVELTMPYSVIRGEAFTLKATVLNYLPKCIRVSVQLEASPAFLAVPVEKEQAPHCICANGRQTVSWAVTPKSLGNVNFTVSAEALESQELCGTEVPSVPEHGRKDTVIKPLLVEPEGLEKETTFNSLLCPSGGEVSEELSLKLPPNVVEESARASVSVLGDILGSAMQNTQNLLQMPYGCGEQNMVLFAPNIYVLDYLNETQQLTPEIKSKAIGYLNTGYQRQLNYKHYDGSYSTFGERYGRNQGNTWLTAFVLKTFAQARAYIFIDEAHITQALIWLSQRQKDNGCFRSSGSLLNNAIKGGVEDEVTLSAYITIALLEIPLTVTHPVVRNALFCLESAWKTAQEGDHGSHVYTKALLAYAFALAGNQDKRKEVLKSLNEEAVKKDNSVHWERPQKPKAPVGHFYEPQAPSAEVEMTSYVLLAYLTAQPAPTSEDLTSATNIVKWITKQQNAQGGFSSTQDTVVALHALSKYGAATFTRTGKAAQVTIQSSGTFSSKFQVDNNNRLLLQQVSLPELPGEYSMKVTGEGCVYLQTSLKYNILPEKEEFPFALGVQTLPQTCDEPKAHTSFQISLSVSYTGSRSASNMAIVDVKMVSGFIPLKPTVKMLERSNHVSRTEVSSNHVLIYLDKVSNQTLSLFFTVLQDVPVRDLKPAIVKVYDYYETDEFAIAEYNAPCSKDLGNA
Assay type: biochemical

Compound | inhibition of α2M deacylating activity | inhibition of α2M deacylating activity (100 µM) | Km | kcat
O=[N+]([O-])c1ccc(OP(=O)(O)Oc2ccc([N+](=O)[O-])cc2)cc1 [BNPP, bis-p-nitrophenyl-phosphate] | 40% | 0% | – | –
ghrelin-MCA: full length acylated ghrelin containing the fluorophore 7-methoxycoumarin-4-acetic acid (MCA) at the C-terminus (GSSFLSPEHQRVQQRKESKKPPAKLQPR-{MCA}; also: octanoyl acylated, position not given here; UniProt Q9UBU3 24-51, looked up) | – | – | 24 ± 3 µM | 0.000383 ± 1.7e-05 s⁻¹
